Key:
[1] = tested on: human NIS promoter region (Luc-1/pGL3-basic) in KAK-1 cells; assay: Transient transfection luciferase reporter assay, Luc-1/pGL3-basic (hNIS promoter -1667 to -348 bp) in KAK-1 cells, protein synthesis inhibitors; assay type: cell-based; conditions: 2 days, Anisomycin at 0.4, 1 μg/ml, Emetine at 1, 2 μg/ml, Puromycin up to highest concentration used (1 μg/ml)
Procedure: The pGL3-basic plasmid, together with phRG-B plasmid (as transfection efficiency control) and pUC-18 (as carrier) were transiently transfected into KAK-1 cells cultured under basal conditions supplemented with 0.01% DMSO (as solvent control), Anisomycin (0.1, 0.4, 1 μg/ml), Emetine (0.5, 1, 2 μg/ml) and Puromycin (0.1, 0.4, 1 μg/ml) respectively for 2 days. The cells were then lysed and firefly luciferase activity and Renilla luciferase activity were quantitated using a luminometer (FIG. 3).
Luc-1/pGL3-basic reporter construct (Luc-1) was prepared containing the promoter region of the human sodium/iodide symporter gene (see Venkataraman et al. 1998 Thyroid 8:63-69 and U.S. Pat. No. 6,015,376; Genebank Accession Number: AF059566) from −1667 to −348 bp (FIG. 2) inserted into pGL3-basic luciferase vector at KpnI and HindIII site upstream of the luciferase coding sequence. The Luc-1/pGL3-basic construct, together with phRG-B plasmid (as transfection efficiency control) and pUC-18 (as carrier) were transiently transfected into KAK-1 cells cultured under basal conditions supplemented with 0.01% DMSO (as solvent control), Anisomycin (0.1, 0.4, 1 μg/ml), Emetine (0.5, 1, 2 μg/ml) and Puromycin (0.1, 0.4, 1 μg/ml) respectively for 2 days. The cells were then lysed and firefly luciferase activity and Renilla luciferase activity were quantitated using luminometer (FIG. 4).

[2] = tested on: factor(s) in KAK-1 nuclear extract binding to Probe A (NIS-repressor); assay: EMSA competition of cold double-stranded oligonucleotides against radiolabeled Probe A with KAK-1 nuclear extract; design: species or system human; conditions: excess (60×) cold competitor
Procedure: Nuclear extracts were prepared using the NucBuster Protein Extraction kit from Novagen/EMD Biosciences, Inc. (La Jolla, Calif.) following its instructions. The radioactive EMSA probes were end-labeled using T4 polynucleotide kinase in the presence of γ-P^32-ATP (GE Healthcare Bio-Sciences Corp., Piscataway, N.J.), followed by removal of the free radioactive ATP with the QIAquick Nucleotide Removal Kit from Qiagen (Valencia, Calif.). EMSA reaction was performed using the EMSA Accessory Kit (Novagen) following its instructions. Briefly, 1 μL 10 mM DTT, 5 μL 4×EMSA buffer, 1 μL Salmon sperm DNA and 1 μL poly dI:dC were mixed with 3 μL nuclear extracts, 1 μL radioactive EMSA probe and water to make up to 18 μL. In some reactions, antibodies or cold competitive probes were added. The mixtures were incubated on ice for 30 min, Then 2 μL loading dye were added to each reaction tubes, and the samples were loaded onto 7.5% PAGE/0.5×TBE, and run overnight. The gel was dried, exposed to X-ray films that were developed 2-3 days later. The competitive EMSA probes were prepared by annealing the sense and anti-sense single strand synthetic oligos respectively, which are listed in Table 2.

[3] = tested on: hNIS mRNA in KAK-1 cells; assay: qRT-PCR assay of hNIS mRNA levels after treatments in KAK-1 cells; assay type: cell-based, human; conditions: for Stimulation of hNIS mRNA transcription (in words): qRT-PCR; for Relative hNIS mRNA level: relative to control = 1 (4 copies/10^9 18s RNA), azaC 0.5 μM, NaB 1 mM, CHX 10 μg/ml, 3-AB 7.5 mM, PJ34 30 μmole/liter
Procedure: The basal media and supplements were all from GIBCO/Invitrogen Corporation, Grand Island, N.Y. All thyroid cell lines were grown in phenol red-free RPMI 1640 (GIBCO) with 10% FBS, 100 nmol/L sodium selenite, and 0.1 nmol/L bovine TSH (Sigma) at 37° C. in 5% CO2. KAK-1 cells were also cultured in high-glucose, phenol red-free RPMI 1640 supplemented with 10% FBS, 100 nM sodium selenite, 5 pIU/ml human TSH, 0.1 mM non-essential amino acids, 1 mM sodium pyruvate at 37° C. in 5% CO2. Cell culture media was replenished every 2 days. All chemical reagents were obtained from Sigma Chemical Company (St. Louis, Mo.). In addition, PJ34 was obtained from CalBiochem/EMD Biosciences, Inc. (La Jolla, Calif.) and used at 30 μmole/liter. Cycloheximide (CHX), 3-aminobenzamide (3-AB), 5-azacytidine (azaC), and sodium butyrate (NaB) were from Sigma-Aldrich Chemical Company (St. Louis, Mo.) and used at 10 μg/ml, 7.5 mM, 0.5 μM, 1 mM respectively.
Total RNA was isolated using TRIzol reagent (Invitrogen Corp., Carlsbad, Calif.), genomic DNA contamination removed using DNA-free kit (Ambion Inc., Austin, Tex.), and cDNA synthesized from 2 μg total RNA using Advantage RT-for-PCR kit (BD Biosciences Clontech, Palo Alto, Calif.) with random hexamer primers. TaqMan Universal PCR Master Mix (Applied Biosystems, Foster City, Calif.) and Assay-on-Demand Gene Expression Products (Hs00166567_m1 for hNIS mRNA and Hs999999-1_s1 for 18sRNA, respectively; Applied Biosystems) were used for RNA quantitation. The hNIS fragment (1446-1865, +1 is translation initiation codon “A”) was PCR amplified using NIS-F (5′-ctgcgtggctctctcagtc-3′ SEQ ID NO:6) and NIS-R (5′-ccctccagctccttctgc-3′ SEQ ID NO:7), followed by ligation into pCR2.1 vector (Invitrogen). The same procedure was followed using 18s-F (5′-atggtgaccacgggtgacg-3′ SEQ ID NO:8) and 18s-R (5′-[…]-3′ SEQ ID NO:9) for 18s qPCR standard. DNA preparations of these two plasmids were quantitated, diluted and used as quantitation standards in qPCR measurements.
The qRT-PCR assay was used to measure hNIS mRNA levels after different treatments in KAK-1 cells.

[4] = tested on: factors in KAK-1 nuclear extract binding to NRBS (Probe A); assay: EMSA with radiolabeled Probe A and nuclear extract from treated KAK-1 cells; assay type: cell-based, human; conditions: nuclear extract from KAK-1 cells treated with azaC 0.5 μM, sodium butyrate 1 mM, CHX 10 μg/ml or combinations
Procedure: Electrophoretic mobility shift assay was performed using radio-labeled NRBS (−684 to −565) oligonucleotides as a probe and nuclear extracts from KAK-1 cells cultured under basal conditions (not expressing hNIS mRNA), as well as with azaC/NaB and azaC/CHX treatments (shown in FIG. 8 on far left).

[5] = tested on: hNIS promoter in KAK-1 cells; assay: Luciferase reporter assay with pGL3-basic, F4-pGL3-basic and F4Δ-pGL3-basic constructs in KAK-1 cells, PJ34 treatment; assay type: cell-based, human; conditions: PJ34 at 30 μM for 2 days, pGL3-basic, F4-pGL3-basic, F4Δ-pGL3-basic, p<0.05, t-test
Procedure: For the transient transfection assays to monitor the effects of PJ34, PJ34 was administered at 30 μM one hour before DNA transfection mixtures were added to the KAK-1 cultures. Twenty-four hours later, transfection mixtures were replaced with fresh media containing PJ34. Luciferase and Rennilar activities were determined 24 hr later. Luciferase activity was normalized to Rennilar activity to account for the variations in transfection efficiency. Triplicate transfections were performed and data were presented as mean±SD.
PJ34 is a potent inhibitor for PARP-1. Its effect on hNIS transcription was determined using luciferase reporter assay with pGL3-basic, F4-pGL3-basic (containing hNIS promoter from −1252 to −348 bp) and F4Δ-pGL3-basic constructs (the same as F4-pGL3-basic but with deletion of sequence from −667 to −588 bp, encompassing R—NRBS).

Question: Which “Normalized luciferase activity driven by human NIS promoter region (Luc-1/pGL3-basic), compared with pGL3-basic vector” value [1] does the source give for COc1ccc(C[C@H](N)C(=O)N[C@H]2[C@@H](O)[C@H](n3cnc4c(N(C)C)ncnc43)O[C@@H]2CO)cc1 [Puromycin] here?
Answer: did not stimulate the luciferase activity much

Question: For CC[C@H]1CN2CCc3cc(OC)c(OC)cc3[C@@H]2C[C@@H]1C[C@H]1NCCc2cc(OC)c(OC)cc21 [Emetine], which “Normalized luciferase activity driven by human NIS promoter region (Luc-1/pGL3-basic), compared with pGL3-basic vector” value [1] is on record?
Answer: dramatically stimulated the normalized luciferase activity

Question: How did the “Competition against radiolabeled Probe A in EMSA (gel-shift signal)” value (from here on “Competition … (gel-shift signal)”) [2] turn out when “Comp-1.1: double-stranded competitive EMSA probe, −653 to −630 of hNIS promoter, Seq ID No:77/78 (chain 1 GCCCTTTTTGAGCCTCAATTTCCC; chain 2 GGGAAATTGAGGCTCAAAAAGGGC; chemistry not given here)” was run?
Answer: fail to compete against the radiolabeled Probe A

Question: How did the “Competition … (gel-shift signal)” value [2] turn out when “Comp-1.4: double-stranded competitive EMSA probe, −638 to −615 of hNIS promoter, Seq ID No:83/84 (chain 1 CAATTTCCCCACCTGTCAACAGCA; chain 2 TGCTGTTGACAGGTGGGGGAAATTG; chemistry not given here)” was run?
Answer: fail to compete against the radiolabeled Probe A

Question: Which “Stimulation of hNIS mRNA transcription (in words)” value [3] does the source give for NC(=O)c1cccc(N)c1 [3-AB, 3-aminobenzamide] here?
Answer: not effective in stimulating hNIS mRNA transcription

Question: What about the “Relative hNIS mRNA level” value [3] of the same molecule?
Answer: 1

Question: C[C@@H]1C[C@@H]([C@H](O)CC2CC(=O)NC(=O)C2)C(=O)[C@@H](C)C1 [CHX, Cycloheximide] was tested. Which “Relative hNIS mRNA level” value [3] did it give?
Answer: 4

Question: Nc1ncn([C@@H]2O[C@H](CO)[C@@H](O)[C@H]2O)c(=O)n1 [azaC, 5-azacytidine] was tested. Which “Relative hNIS mRNA level” value [3] did it give?
Answer: 5

Question: What about the “Effect of cell treatment on EMSA gel shift pattern (Probe A)” value [4] of the same molecule?
Answer: gel shift pattern remained the same

Question: How did the “Normalized luciferase activity driven by human NIS promoter region (Luc-1/pGL3-basic), compared with pGL3-basic vector” value [1] turn out when COc1ccc(C[C@H]2NC[C@H](O)[C@H]2OC(C)=O)cc1 [Anisomycin] was run?
Answer: dramatically stimulated the normalized luciferase activity

Question: For “Comp-1.3: double-stranded competitive EMSA probe, −643 to −620 of hNIS promoter, Seq ID No:81/82 (chain 1 AGCCTCAATTTCCCCACCTGTCAA; chain 2 TTGACAGGTGGGGAAATTGAGGCT; chemistry not given here)”, which “Competition … (gel-shift signal)” value [2] is on record?
Answer: effectively competed against the radiolabeled Probe A

Question: CN(C)CC(=O)Nc1ccc2[nH]c(=O)c3ccccc3c2c1 [PJ34] was tested. Which “Stimulation of hNIS mRNA transcription (in words)” value [3] did it give?
Answer: stimulate hNIS mRNA more than CHX alone

Question: And the “Relative hNIS mRNA level” value [3]?
Answer: 26

Question: And the “Normalized luciferase activity with versus without PJ34 treatment” value [5]?
Answer: stimulated luciferase activity from all the constructs

Question: With “Comp-1.2: double-stranded competitive EMSA probe, −648 to −625 of hNIS promoter, Seq ID No:79/80 (chain 1 TTTTGAGCCTCAATTTCCCCACCT; chain 2 AGGTGGGGAAATTGAGGCTCAAAA; chemistry not given here)” as the molecule, how does the “Competition … (gel-shift signal)” value [2] read?
Answer: effectively competed against the radiolabeled Probe A

B1: Comp-1: double-stranded competitive EMSA probe, −653 to −615 of hNIS promoter, Seq ID No:75/76 (nucleic acid)
chain 1: GCCCTTTTTGAGCCTCAATTTCCCCACCTGTCAACAGCA
chain 2: TGCTGTTGACAGGTGGGGAAATTGAGGCTCAAAAAGGGC
modifications: chemistry not given here
Question: For B1, which “Competition … (gel-shift signal)” value [2] is on record?
Answer: completely erased the characteristic gel-shift signal

B2: Comp-2: double-stranded competitive EMSA probe, −633 to −595 of hNIS promoter, Seq ID No:85/86 (nucleic acid)
chain 1: TCCCCACCTGTCAACAGCAGACAGTGACAGCTGTGATCA
chain 2: TGATCACAGCTGTCACTGTCTGCTGTTGACAGGTGGGGA
modifications: chemistry not given here
Question: How did the “Competition … (gel-shift signal)” value [2] turn out when B2 was run?
Answer: fail to compete against the radiolabeled Probe A

B3: Comp-0.9: double-stranded competitive EMSA probe, −660 to −627 of hNIS promoter, Seq ID No:73/74 (nucleic acid)
chain 1: GTGACATGCCCTTTTTGAGCCTCAATTTCCCCAC
chain 2: GTGGGGAAATTGAGGCTCAAAAAGGGCATGTCAC
modifications: chemistry not given here
Question: For B3, which “Competition … (gel-shift signal)” value [2] is on record?
Answer: fail to compete against the radiolabeled Probe A

Source: patent US8252912B2, “Transcriptional repression of sodium-iodide symporter in thyroid carcinoma” (University of Kentucky Research Foundation, priority 2007, dated 2012)
